This passage reports mutagenic call results from PubChem BioAssay AID1259407 (Chemical Carcinogenesis Research Information System (CCRIS), 2018).

In this data set the test system is CCRIS mutagenicity, Ames/micronucleus/aberration tests. Briefly: CCRIS mutagenicity studies.
Where [1] appears, read: Test System: AMES SALMONELLA TYPHIMURIUM, Strain/Indicator: TA98, Metabolic Activation: HAMSTER, LIVER, S-9, AROCLOR 1254 (10%), Method: PREINCUBATION
Setting [2] is: Test System: AMES SALMONELLA TYPHIMURIUM, Strain/Indicator: TA98, Metabolic Activation: NONE, Method: PREINCUBATION
Setting [3] is: Test System: AMES SALMONELLA TYPHIMURIUM, Strain/Indicator: TA98, Metabolic Activation: NONE, Method: STANDARD PLATE.
Setting [4] is: Test System: AMES SALMONELLA TYPHIMURIUM, Strain/Indicator: TA98, Metabolic Activation: RAT, LIVER, S-9, AROCLOR 1254 (10%), Method: PREINCUBATION
Setting [5] is: Test System: AMES SALMONELLA TYPHIMURIUM, Strain/Indicator: TA98, Metabolic Activation: RAT, LIVER, S-9, AROCLOR 1254, Method: STANDARD PLATE.
The mark [6] stands for this setting: Test System: AMES SALMONELLA TYPHIMURIUM, Strain/Indicator: TA100, Metabolic Activation: HAMSTER, LIVER, S-9, AROCLOR 1254 (10%), Method: PREINCUBATION
Setting [7] is: Test System: AMES SALMONELLA TYPHIMURIUM, Strain/Indicator: TA100, Metabolic Activation: NONE, Method: PREINCUBATION
Where [8] appears, read: Test System: AMES SALMONELLA TYPHIMURIUM, Strain/Indicator: TA100, Metabolic Activation: NONE, Method: STANDARD PLATE.
The mark [9] stands for this setting: Test System: AMES SALMONELLA TYPHIMURIUM, Strain/Indicator: TA100, Metabolic Activation: RAT, LIVER, S-9, AROCLOR 1254 (10%), Method: PREINCUBATION
[10] abbreviates: Test System: AMES SALMONELLA TYPHIMURIUM, Strain/Indicator: TA100, Metabolic Activation: RAT, LIVER, S-9, AROCLOR 1254, Method: STANDARD PLATE.
[11] abbreviates: Test System: AMES SALMONELLA TYPHIMURIUM, Strain/Indicator: TA1535, Metabolic Activation: HAMSTER, LIVER, S-9, AROCLOR 1254 (10%), Method: PREINCUBATION
Where [12] appears, read: Test System: AMES SALMONELLA TYPHIMURIUM, Strain/Indicator: TA1535, Metabolic Activation: NONE, Method: PREINCUBATION
[13] abbreviates: Test System: AMES SALMONELLA TYPHIMURIUM, Strain/Indicator: TA1535, Metabolic Activation: NONE, Method: STANDARD PLATE.
[14] abbreviates: Test System: AMES SALMONELLA TYPHIMURIUM, Strain/Indicator: TA1535, Metabolic Activation: RAT, LIVER, S-9, AROCLOR 1254 (10%), Method: PREINCUBATION
Setting [15] is: Test System: AMES SALMONELLA TYPHIMURIUM, Strain/Indicator: TA97, Metabolic Activation: NONE, Method: PREINCUBATION

Molecules are shown by their SMILES. Activity calls are given as the source filed them. How the calls were made is not given here.

As to `C=C(C)C(=O)OCC`, the mutagenic call by setting is: under setting [1], “inactive; negative”; under setting [2], “inactive; negative”; under setting [3], “inactive; negative”; under setting [4], “inactive; negative”; under setting [5], “inactive; negative”; (Test System: AMES SALMONELLA TYPHIMURIUM, Strain/Indicator: TA98, Metabolic Activation: RAT, LIVER, S-9, SODIUM PHENOBARBITAL, Method: STANDARD PLATE) “inactive; negative”. Further, the mutagenic call was “inactive; negative” under setting [6]; “inactive; negative” under setting [7]; “inactive; negative” under setting [8]; “inactive; negative” under setting [9]; “inactive; negative” under setting [10]; “inactive; negative” (Test System: AMES SALMONELLA TYPHIMURIUM, Strain/Indicator: TA100, Metabolic Activation: RAT, LIVER, S-9, SODIUM PHENOBARBITAL, Method: STANDARD PLATE). For the same molecule, the mutagenic call is “inactive; negative” under setting [11]; “inactive; negative” under setting [12]; “inactive; negative” under setting [13]; “inactive; negative” under setting [14]; “inactive; negative” (Test System: AMES SALMONELLA TYPHIMURIUM, Strain/Indicator: TA1535, Metabolic Activation: RAT, LIVER, S-9, AROCLOR 1254, Method: STANDARD PLATE); “inactive; negative” (Test System: AMES SALMONELLA TYPHIMURIUM, Strain/Indicator: TA1535, Metabolic Activation: RAT, LIVER, S-9, SODIUM PHENOBARBITAL, Method: STANDARD PLATE). For the same molecule, the mutagenic call is “inactive; negative” (Test System: AMES SALMONELLA TYPHIMURIUM, Strain/Indicator: TA1537, Metabolic Activation: HAMSTER, LIVER, S-9, AROCLOR 1254 (10%), Method: PREINCUBATION); “inactive; negative” (Test System: AMES SALMONELLA TYPHIMURIUM, Strain/Indicator: TA1537, Metabolic Activation: NONE, Method: PREINCUBATION); “inactive; negative” (Test System: AMES SALMONELLA TYPHIMURIUM, Strain/Indicator: TA1537, Metabolic Activation: NONE, Method: STANDARD PLATE); “inactive; negative” (Test System: AMES SALMONELLA TYPHIMURIUM, Strain/Indicator: TA1537, Metabolic Activation: RAT, LIVER, S-9, AROCLOR 1254 (10%), Method: PREINCUBATION); “inactive; negative” (Test System: AMES SALMONELLA TYPHIMURIUM, Strain/Indicator: TA1537, Metabolic Activation: RAT, LIVER, S-9, AROCLOR 1254, Method: STANDARD PLATE); “inactive; negative” (Test System: AMES SALMONELLA TYPHIMURIUM, Strain/Indicator: TA1537, Metabolic Activation: RAT, LIVER, S-9, SODIUM PHENOBARBITAL, Method: STANDARD PLATE). The mutagenic call is “inactive; negative” (Test System: AMES SALMONELLA TYPHIMURIUM, Strain/Indicator: TA1538, Metabolic Activation: NONE, Method: STANDARD PLATE); “inactive; negative” (Test System: AMES SALMONELLA TYPHIMURIUM, Strain/Indicator: TA1538, Metabolic Activation: RAT, LIVER, S-9, AROCLOR 1254, Method: STANDARD PLATE); “inactive; negative” (Test System: AMES SALMONELLA TYPHIMURIUM, Strain/Indicator: TA1538, Metabolic Activation: RAT, LIVER, S-9, SODIUM PHENOBARBITAL, Method: STANDARD PLATE).
With `O=[N+]([O-])c1ccc(CCO)cc1`, the mutagenic call (Test System: AMES SALMONELLA TYPHIMURIUM, Strain/Indicator: TA97, Metabolic Activation: HAMSTER, LIVER, S-9, AROCLOR 1254 (10%), Method: PREINCUBATION) is “inactive; negative”; the mutagenic call under setting [15] was “inactive; negative”; the mutagenic call (Test System: AMES SALMONELLA TYPHIMURIUM, Strain/Indicator: TA97, Metabolic Activation: RAT, LIVER, S-9, AROCLOR 1254 (10%), Method: PREINCUBATION) was “inactive; negative”; the mutagenic call under setting [1] is “active; positive”; the mutagenic call under setting [2] was “active; positive”; the mutagenic call under setting [4] was “active; positive”. Moreover, the mutagenic call is “active; positive” under setting [6]; “inactive; negative” under setting [7]; “active; positive” under setting [9]; “active; positive” under setting [11]; “inactive; negative” under setting [12]; “active; positive” under setting [14].
Regarding `c1cc(OCC2CO2)c2sncc2c1` (stereo not drawn), the mutagenic call under setting [8] was “active; positive”.
Consider `O=S1(=O)CCCO1`, for which the mutagenic call runs as follows: (Test System: AMES SALMONELLA TYPHIMURIUM, Strain/Indicator: TA100, Metabolic Activation: RAT, LIVER, S-9, KC500 OR PHENOBARBITAL, Method: LIQUID SUSPENSION) “active; positive”; under setting [13], “active; positive”; (Test System: UDS HUMAN FIBROBLASTS, Strain/Indicator: THY INCORP (NON-S-PHASE), Metabolic Activation: NONE, Method: LIQUID SCINTILLATION COUNTING) “active; positive”.
As to `O=CN(O)c1ccc(F)cc1`, the mutagenic call is “inactive; negative” under setting [3], “active; positive” under setting [5], “inactive; negative” under setting [8] and “active; positive” under setting [10].
Turning to `Nc1cc(S(=O)(=O)O)cc2cc(S(=O)(=O)O)c(N=Nc3ccccc3)c(O)c12`, the mutagenic call is, setting by setting: under setting [3], “inactive; negative”; (Test System: AMES SALMONELLA TYPHIMURIUM, Strain/Indicator: TA98, Metabolic Activation: RAT LIVER S-9, AROCLOR 1254, Method: STANDARD PLATE) “inactive; negative”; under setting [8], “inactive; negative”; (Test System: AMES SALMONELLA TYPHIMURIUM, Strain/Indicator: TA100, Metabolic Activation: RAT LIVER S-9, AROCLOR 1254, Method: STANDARD PLATE) “inactive; negative”.
`CC(C)COC(=O)Cc1ccccc1`: the mutagenic call is “inactive; negative” under setting [15]; “inactive; negative” (Test System: AMES SALMONELLA TYPHIMURIUM, Strain/Indicator: TA97, Metabolic Activation: RAT, LIVER, S-9, AROCLOR 1254, Method: PREINCUBATION); “inactive; negative” (Test System: AMES SALMONELLA TYPHIMURIUM, Strain/Indicator: TA102, Metabolic Activation: NONE, Method: PREINCUBATION); “inactive; negative” (Test System: AMES SALMONELLA TYPHIMURIUM, Strain/Indicator: TA102, Metabolic Activation: RAT, LIVER, S-9, AROCLOR 1254, Method: PREINCUBATION).
On to `Cc1ccc(N=CN(C)C=Nc2ccc(C)cc2C)c(C)c1`, for which the mutagenic call runs as follows: (Test System: AMES SALMONELLA TYPHIMURIUM, Strain/Indicator: TA97, Metabolic Activation: NONE, Method: STANDARD PLATE) “inactive; negative”; (Test System: AMES SALMONELLA TYPHIMURIUM, Strain/Indicator: TA97, Metabolic Activation: RAT, LIVER, S-9, AROCLOR 1254, Method: STANDARD PLATE) “inactive; negative”; under setting [3], “inactive; negative”; under setting [5], “inactive; negative”; under setting [8], “inactive; negative”; under setting [10], “inactive; negative”. For the same molecule, the mutagenic call (Test System: AMES SALMONELLA TYPHIMURIUM, Strain/Indicator: TA102, Metabolic Activation: NONE, Method: STANDARD PLATE) was “inactive; negative” and the mutagenic call (Test System: AMES SALMONELLA TYPHIMURIUM, Strain/Indicator: TA102, Metabolic Activation: RAT, LIVER, S-9, AROCLOR 1254, Method: STANDARD PLATE) is “inactive; negative”.
